Source: PubChem BioAssay (NCI)
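Grown in 96-well plates, cells were treated for 48 hours with each compound at five concentrations. Insufficient inhibition: endpoint recorded as highest concentration tested. Abbreviation: GI50, concentration required for 50% inhibition of growth. TGI: concentration producing complete growth inhibition.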

How the values were obtained:
Experiment in all cases: NCI anticancer screen, dose series, 48 h
[1] = test system: 786-0 renal
[2] = test system: A498 renal
[3] = test system: A549 NSCLC
[4] = test system: ACHN renal
[5] = test system: BT-549 breast
[6] = test system: CAKI-1 renal
[7] = test system: CCRF-CEM leukemia
[8] = test system: COLO 205 colon
[9] = test system: DU-145 prostate
[10] = test system: EKVX NSCLC
[11] = test system: HCC-2998 colon
[12] = test system: HCT-116 colon
[13] = test system: HCT-15 colon
[14] = test system: HL-60(TB) leukemia
[15] = test system: HOP-62 NSCLC
[16] = test system: HOP-92 NSCLC
[17] = test system: HS 578T breast
[18] = test system: HT29 colon
[19] = test system: IGROV1 ovarian
[20] = test system: K-562 leukemia
[21] = test system: KM12 colon
[22] = test system: LOX IMVI melanoma
[23] = test system: M14 melanoma
[24] = test system: MALME-3M melanoma
[25] = test system: MCF7 breast
[26] = test system: MDA-MB-231 breast
[27] = test system: MDA-MB-435
[28] = test system: MDA-MB-468 breast
[29] = test system: MOLT-4 leukemia
[30] = test system: NCI-H226 lung

NS(=O)(=O)c1ccc(NC(=O)CSc2ccc(-c3ccc(Cl)cc3)nn2)c(Br)c1
GI50 [1]: 11.3 µM
TGI [1]: 25.6 µM
GI50 [2]: 14 µM
TGI [2]: 28 µM
GI50 [3]: 11.7 µM
TGI [3]: 31.8 µM
GI50 [4]: 6.92 µM
TGI [4]: 19.6 µM
GI50 [5]: 14.1 µM
TGI [5]: 44.3 µM
GI50 [6]: 11 µM
TGI [6]: 24.4 µM
GI50 [7]: > 100 µM
TGI [7]: > 100 µM
GI50 [8]: 20.7 µM
TGI [8]: 65.5 µM
GI50 [9]: 12.1 µM
TGI [9]: 27.2 µM
GI50 [10]: 11 µM
TGI [10]: 25.8 µM
GI50 [11]: 11 µM
TGI [11]: 40.4 µM
GI50 [12]: 10.3 µM
TGI [12]: 29.6 µM
GI50 [13]: 11.8 µM
TGI [13]: 25.8 µM
GI50 [14]: 50.9 µM
TGI [14]: > 100 µM
GI50 [15]: 2.93 µM
TGI [15]: 10.8 µM
GI50 [16]: 3.96 µM
TGI [16]: 19.2 µM
GI50 [17]: 2.8 µM
TGI [17]: 12.4 µM
GI50 [18]: 15.9 µM
TGI [18]: 46.8 µM
GI50 [19]: 23.3 µM
TGI [19]: 76.4 µM
GI50 [20]: 20.4 µM
TGI [20]: > 100 µM
GI50 [21]: 36.3 µM
TGI [21]: > 100 µM
GI50 [22]: 10.4 µM
TGI [22]: 24.2 µM
GI50 [23]: 32.4 µM
TGI [23]: > 100 µM
GI50 [24]: 9.36 µM
TGI [24]: 22.4 µM
GI50 [25]: 10.1 µM
TGI [25]: 25.3 µM
GI50 [26]: 3.7 µM
TGI [26]: 14.6 µM
GI50 [27]: 32.6 µM
TGI [27]: > 100 µM
GI50 [28]: 8.32 µM
TGI [28]: 25 µM
GI50 [29]: 48.3 µM
TGI [29]: > 100 µM
GI50 [30]: 2.62 µM
